Measured values: patent publication US9920039B2, “1,2,4-Oxadiazol compounds active against gram-positive pathogens” (UNIVERSITÀ DEGLI STUDI DI MILANO—BICOCCA, priority 2013, dated 2018)
≈ marks a conversion by molar mass, not a printed value. Where two headings read alike, the source gives them in different places.

Legend:
[1] = system: Staphylococcus aureus ATCC 29213; assay: MIC by broth microdilution (CLSI); type: cell-based; conditions: ATCC 29213
Source text: (§1) Several well characterized for their antibiotic-susceptibility phenotype Staphylococcus aureus isolates were used for the determination of the in vitro antibacterial activity of the studied compounds. In particular, S. aureus ATCC 29213 reference standard strain and S. aureus M923 (collection strain) were used as MSSA strains. Among MRSA, S. aureus MU50 (ATCC 700699) reference standard strain and two collection strains (433 and F511) were used for susceptibility assays.
(§2) The in vitro antibacterial activity of the new agents was studied by determining their minimum inhibitory concentrations (MICs) by means of the broth microdilution method according to the Clinical and Laboratory Standards Institute (CLSI) guidelines.[16] Briefly, serial 2-fold dilutions of each compound were made using the Cation adjusted Mueller-Hinton broth (CAMHB) in microtitre plates with 96 wells. Dimethyl sulfoxide (DMSO) was used as solvent for all the synthesized compounds. An equal volume of the bacterial inoculum (1×10^6 CFU/mL) was added to each well on the microtitre plate containing 0.05 mL of the serial antibiotic dilutions. The microtitre plate was then incubated at 37° C. for 18-24 h after which each well was analysed for the presence of bacterial growth. The MIC was defined as the lowest concentration of antimicrobial agent able to cause inhibition of bacterial growth as shown by the lack of turbidity of the culture medium. […] Final DMSO concentrations were also taken into account in all the biological assays.
(§3) The antimicrobial activities, summarized in Table 2, were determined by the “gold standard” method of broth microdilution, as recommended by the Clinical Laboratory Standards Institute (CLSI) (See the Experimental Section). […] In detail, the bacterial strains were tested: Staphylococcus aureus ATCC 29213, a clinical strain of methicillin-susceptible S. aureus (M923), S. aureus MU50 (methicillin-resistant—MRSA), and two methicillin-resistant clinical strains, 433 and F511.
(§4) The antimicrobial activities, summarized in Table 3, were determined by the “gold standard” method of broth microdilution, as recommended by the Clinical Laboratory Standards Institute (CLSI) (See the Experimental Section). The minimum inhibitory concentration (MIC) values were expressed in μg/mL. […] In detail, the tested bacterial strains were: Staphylococcus aureus ATCC 29213, a clinical strain of methicillin-susceptible S. aureus (M923), S. aureus MU50 (methicillin-resistant—MRSA) strain, and two methicillin-resistant clinical strains, 433 and F511.

[2] = system: MRSA clinical strain 433; assay: MIC by broth microdilution (CLSI); type: cell-based, Staphylococcus aureus; conditions: MRSA 433
Source text: as §1, §2, §3, §4

[3] = system: MRSA clinical strain F511; assay: MIC by broth microdilution (CLSI); type: cell-based, Staphylococcus aureus
Source text: as §1, §2, §3, §4

[4] = system: S. aureus MU50 (ATCC 700699), methicillin-resistant (MRSA); assay: MIC by broth microdilution (CLSI); type: cell-based, Staphylococcus aureus
Source text: as §1, §2, §3, §4

[5] = system: methicillin-susceptible S. aureus (M923); assay: MIC by broth microdilution (CLSI); type: cell-based, Staphylococcus aureus; conditions: MSSA M923
Source text: as §1, §2, §3, §4

[6] = system: 6 ATCC (4MSSA, 2 MRSA)plus45 MRSA all LZD sensitive; assay: MIC on strain panel (Table 4); type: cell-based, Staphylococcus aureus; conditions: 6 ATCC plus 45 MRSA; for MIC-range: tested range ≤0.06 - >128
Source text: as §2

[7] = system: 12 MRSE all LZD sensitive; assay: MIC on strain panel (Table 4); type: cell-based, Staphylococcus epidermidis
Source text: as §2

[8] = Staphylococcus aureus, ATCC29213, racemic form, Table 3, read-out: MIC
[9] = Staphylococcus aureus, racemic form, Table 3, read-out: MIC
[10] = Staphylococcus aureus, ATCC29213, racemic mixture, Table 2, read-out: MIC
[11] = Staphylococcus aureus, racemic mixture, Table 2, read-out: MIC

| SMILES | MIC [1, 10] [mg/L] | MIC [2, 11] [mg/L] | MIC [3, 11] [mg/L] | MIC [4, 11] [mg/L] | MIC [5, 11] [mg/L] | further results |
| --- | --- | --- | --- | --- | --- | --- |
| Cc1noc(-c2ccc(N3CC(CNC(N)=S)OC3=O)cc2)n1 (racemic) [Compound B3a] |  |  |  |  |  | MIC ([1]; racemic form, Table 3): >50 mg/L; MIC ([2]; racemic form, Table 3): >50 mg/L; MIC ([3]; racemic form, Table 3): >50 mg/L; MIC ([4]; racemic form, Table 3): >50 mg/L; MIC ([5]; racemic form, Table 3): >50 mg/L |
| CNC(=S)NC[C@@H]1CN(c2ccc(-c3nc(C)no3)c(F)c2)C(=O)O1 [Compound B4bR] |  |  |  |  |  | MIC50 [6]: >128 mg/L; MIC90 [6]: >128 mg/L; MIC50 [7]: >128 mg/L; MIC90 [7]: >128 mg/L |
| Cc1noc(-c2ccc(N3CC(Cn4ccnn4)OC3=O)cc2)n1 (racemic) [Compound B1a] |  |  |  |  |  | MIC [1, 8]: 25 mg/L (≈ 76.6 µM); MIC [2, 9]: 12.5 mg/L (≈ 38.3 µM); MIC [3, 9]: 12.5 mg/L (≈ 38.3 µM); MIC [4, 9]: 3.12 mg/L (≈ 9.58 µM); MIC [5, 9]: 25 mg/L (≈ 76.6 µM); melting point: 208 to 210 °C |
| CNC(=S)NC[C@@H]1CN(c2ccc(-c3nc(C)no3)cc2)C(=O)O1 [Compound B4aR] |  |  |  |  |  | MIC50 [6]: >128 mg/L; MIC90 [6]: >128 mg/L; MIC50 [7]: >128 mg/L; MIC90 [7]: >128 mg/L; MIC range [7]: >128 mg/L |
| CNC(=S)NC[C@H]1CN(c2ccc(-c3nc(C)no3)cc2)C(=O)O1 [Compound B4aS] |  |  |  |  |  | MIC50 [6]: 2 mg/L; MIC90 [6]: 4 mg/L; MIC-range [6]: 0.5 to 8 mg/L; MIC50 [7]: 16 mg/L (≈ 46.1 µM); MIC90 [7]: 32 mg/L (≈ 92.1 µM); MIC range [7]: 8 to 32 mg/L |
| Cc1noc(-c2ccc(N3CC(Cn4cccn4)OC3=O)cc2)n1 (racemic) [Compound A5a] | > 50 | > 50 | > 50 | > 50 | > 50 |  |
| Cc1noc(-c2ccc(N3CC(CNC(N)=S)OC3=O)cc2F)n1 (racemic) [Compound B3b] |  |  |  |  |  | MIC ([1]; racemic form, Table 3): >50 mg/L; MIC ([2]; racemic form, Table 3): >50 mg/L; MIC ([3]; racemic form, Table 3): >50 mg/L; MIC ([4]; racemic form, Table 3): >50 mg/L; MIC ([5]; racemic form, Table 3): >50 mg/L |
| Cc1noc(-c2ccc(N3CC(CI)OC3=O)cc2F)n1 (racemic) [Compound A1b, 3-(3′-fluoro-4′-(3″-methyl-1,2,4-oxadiazol-5″-yl)-phenyl)-5-(iodomethyl)-oxazolidin-2-one] | > 50 | 50 (≈ 124 µM) | > 50 | 50 (≈ 124 µM) | > 50 | melting point: 148 to 149 °C |
| Cc1noc(-c2ccc(N3CC(CN=C=S)OC3=O)cc2)n1 (racemic) [Compound B2a] |  |  |  |  |  | MIC [1, 8]: > 50 mg/L; MIC [2, 9]: > 50 mg/L; MIC [3, 9]: 50 mg/L (≈ 158 µM); MIC [4, 9]: > 50 mg/L; MIC [5, 9]: > 50 mg/L |
| CC(=O)NCC1CN(c2ccc(-c3nc(C)no3)cc2)C(=O)O1 (stereo not drawn) [Compound A3a, 3-(4′-(3″-methyl-1,2,4-oxadiazol-5-yl)-phenyl)-5-(N-acetylaminomethyl)-oxazolidin-2-one] | 12.5 (≈ 39.5 µM) | 1.6 (≈ 5.06 µM) | 12.5 (≈ 39.5 µM) | 6.25 (≈ 19.8 µM) | 6.25 (≈ 19.8 µM) | melting point: 214 to 216 °C |
| Cc1noc(-c2ccc(N3CC(Cn4ccnc4)OC3=O)cc2F)n1 (racemic) [Compound A6b] | > 50 | > 50 | > 50 | > 50 | > 50 |  |
| Cc1noc(-c2ccc(N3CC(Cn4ccnc4)OC3=O)cc2)n1 (racemic) [Compound A6a] | > 50 | > 50 | > 50 | > 50 | > 50 |  |
| Cc1noc(-c2ccc(N3CC(CN=[N+]=[N-])OC3=O)cc2F)n1 (racemic) [Compound A2b, 3-(3′-fluoro-4′-(3″-methyl-1,2,4-oxadiazol-5-yl)-phenyl)-5-(azidometil)-oxazolidin-2-one] | > 50 | > 50 | > 50 | > 50 | > 50 | melting point: 126.2 to 127.7 °C |
| CC(=O)NCC1CN(c2ccc(-c3nc(C)no3)c(F)c2)C(=O)O1 (racemic) [Compound A3b, 3-(3′-fluoro-4′-(3″-methyl-1,2,4-oxadiazol-5-yl)-phenyl)-5-(N-acetylaminomethyl)-oxazolidin-2-one] | 12.5 (≈ 37.4 µM) | 1.6 (≈ 4.79 µM) | 12.5 (≈ 37.4 µM) | 6.25 (≈ 18.7 µM) | 6.25 (≈ 18.7 µM) | melting point: 184 to 186 °C |
| Cc1noc(-c2ccc(N3CC(Cn4cccn4)OC3=O)cc2F)n1 (racemic) [Compound A5b] | > 50 | > 50 | > 50 | > 50 | > 50 |  |
| Cc1noc(-c2ccc(N3CC(CN=C=S)OC3=O)cc2F)n1 (racemic) [Compound B2b] |  |  |  |  |  | MIC [1, 8]: > 50 mg/L; MIC [2, 9]: > 50 mg/L; MIC [3, 9]: > 50 mg/L; MIC [4, 9]: > 50 mg/L; MIC [5, 9]: > 50 mg/L |
| CNC(=S)NC[C@H]1CN(c2ccc(-c3nc(C)no3)c(F)c2)C(=O)O1 [Compound B4bS] |  |  |  |  |  | MIC50 [6]: 2 mg/L; MIC90 [6]: 4 mg/L; MIC-range [6]: 0.5 to 8 mg/L; MIC50 [7]: 8 mg/L (≈ 21.9 µM); MIC90 [7]: 8 mg/L (≈ 21.9 µM) |
| Cc1noc(-c2ccc(N3CC(CI)OC3=O)cc2)n1 (racemic) [Compound A1a, 3-(4′-(3″-methyl-1,2,4-oxadiazol-5″-yl)-phenyl)-5-(iodomethyl)-oxazolidin-2-one] | > 50 | 25 (≈ 64.9 µM) | 50 (≈ 130 µM) | 50 (≈ 130 µM) | > 50 | melting point: 145 to 147 °C |
| Cc1noc(-c2ccc(N3CC(Cn4cncn4)OC3=O)cc2)n1 (racemic) [Compound A7a] | > 50 | > 50 | > 50 | > 50 | > 50 |  |
| Cc1noc(-c2ccc(N3CC(Cn4cncn4)OC3=O)cc2F)n1 (racemic) [Compound A7b] | > 50 | > 50 | > 50 | > 50 | > 50 |  |
| CC(=S)NCC1CN(c2ccc(-c3nc(C)no3)cc2)C(=O)O1 (racemic) [Compound A4a, 3-(4′-(3″-methyl-1,2,4-oxadiazol-5-yl)-phenyl)-5-(N-thioacetylaminomethyl)-oxazolidin-2-one] | 3.13 (≈ 9.42 µM) | 1.6 (≈ 4.81 µM) | 1.6 (≈ 4.81 µM) | ≤ 0.4 | 1.6 (≈ 4.81 µM) |  |
